Test results from patent US5225543A, “Receptors method for purification of G protein-linked” (priority 1991, dated 1993).
Where no end group is shown, it is not given here. The star is where a group is joined. 125I = [125I]*

Key:
[1] = molecular target: T1, SRIF receptor (GH4 C1 membranes) (Rattus norvegicus, UniProt P30680); experiment: Scatchard analysis of [^125 I]-labelled ligand binding to GH4 C1 membranes (FIG. 5); details: read-out: dissociation constant (KD)
T1 construct: GH4 C1 rat pituitary tumor cells; endogenous in cells; host or cells: GH4 C1 rat pituitary tumor cells (isolated membranes)
Method: 1. Standard Binding Assays--Binding assays are done in a binding buffer containing 50 mM HEPES (pH 7.4), 0.5% BSA and 5 mM MgCl2. The standard assay for [^125 I]SRIF analog binding to GH4 CL membranes, done in 96 well microtiter plates (Dynatech Immulon II Removawell plates), is carried out as follows: 1. Radioligand is diluted in binding buffer+PMSF/Baci to the desired cpm per vol. of 50 μl and then 50 μl aliquots are added to the wells. For non-specific binding samples, 5 μl of 40 μM cold S14 is also added per well. 2. Binding is initiated by adding 150 μl per well of membrane diluted to the desired concentration (10-30 ug membrane protein/well) in binding buffer+PMSF/Baci. Plates are then covered with Linbro mylar plate sealers (Flow Labs) and placed on a Dynatech Microshaker II and binding is allowed to proceed at room temperature for 1-2 hours. Binding is stopped by centrifuging the plate for 15 minutes at 2,000×g. The supernatants are dumped off and membrane pellets washed once by addition of 200 μl of ice cold binding buffer, brief shaking and recentrifugation. Finally the individual wells are placed in 12×75 mm tubes and counted in an LKB Gammamaster counter (78% efficiency). Specific binding by this method is identical to that measured when free ligand is removed by rapid (3-5 seconds) filtration and washing on polyethyleneimine-coated glass fiber filters.
3. […]

[2] = tested on: somatostatin receptor (GH4 C1 membranes); experiment: Binding, CHAPS solubilization and recovery of SRIF receptor:[^125 I]Tyr11-S14 complex (FIG. 1, Table 1); set-up: species or system rat; details: for CPM recovered, B. Nonspecific: 10^-6 M cold S14; for CPM recovered, A. Total: without cold S14
Method: FIG. 1 illustrates separation of receptor-bound and free [^125 I]Tyr11-S14. Radioligand is bound to GH4 C1 membranes as described in "Materials and Methods". The binding incubations contain 2 mg membrane protein and 6×10^6 cpm of radioligand in 8 ml. A non-specific binding sample is identical except for the addition of 1 uM cold S14. Initial cpm bound were 1.43×10^6 (total) and 0.65×10^6 (non-specific). After the binding step, membranes are resuspended at 1 […] in the presence of 1% CHAPS detergent in a buffer containing 25 mM Tris (pH 8), 10% glycerol and 0.2 mM CaCl2 (solubilization buffer). A protease inhibitor cocktail ("100×4 pase" described in "Materials and Methods") is also added as 1% of final volume. Solubilization is allowed to proceed for 1 hour on ice, and then the mixture is centrifuged for 30 minutes at 100,000×g. CPM in the 100,000×g supernatant were 0.61×10^6 (total) and 0.29×10^6 (non-specific). Free [^125 I]Tyr11-S14 is added to the non-specific binding sample to give equal cpm in the two samples. Then 0.25 ml aliquots of each supernatant ([…]) are loaded onto 0.8×13 cm columns of Sephadex G-50. The columns are eluted at a flow rate of 0.7 ml/min with solubilization buffer + 1% BSA. 0.18 ml fractions are collected and counted for radioactivity.
0.18 ml samples are collected. […] The mixture is held on ice for 15 minutes.
[^125 I]Tyr11-S14 is bound to GH4 C1 membranes as described above ("Methods: Receptor Binding Methods, 4."), except that these binding assays contain 2 mg membrane protein in 8 ml (0.25 mg membrane protein/ml). Radioligand is […]. A non-specific binding sample is identical except for the addition of 1 uM cold S14. Initial cpm bound is 1.43×10^6 (total) and 0.65×10^6 (nonspecific). After the binding step, membranes are solubilized in solubilization buffer containing 0.2 mM CaCl2 and 1% CHAPS ("Methods: Membrane Solubilization"). CPM in the 100,000×g supernatants are 0.61×10^6 (total) and 0.29×10^6 (nonspecific). Free [^125 I]Tyr11-S14 is added to the nonspecific binding sample to give equal cpm in the two samples. Then 0.25 ml aliquots of each supernatant (75-80,000 cpm) are loaded onto 0.8×13 cm columns of Sephadex G-50. The columns are eluted as described in "Methods: Assay of Solubilized Receptors, 1." and the fractions counted for radioactivity.
A peak of high MW material eluting in the column void volume (peak I; 34% of total cpm) contain specifically bound radioactivity. […] Peak II in FIG. 1 represents free [^125 I]Tyr11-S14, and is the major peak in the nonspecific binding sample. In FIG. 1 it is important to note that just before applying samples to the columns, free [^125 I]Tyr11-S14 is added to the non-specific binding sample to equalize the cpm in the two samples. […] The GFB/PEI method is used in subsequent experiments.
0.25 ml samples containing solubilized R:L complex, from the preparation described in FIG. 1 are separated from free radioligand either by: (1) chromatography on Sephadex G-50 (see FIG. 1), (2) Precipitation with polyethyleneglycol+bovine gamma globulin with collection of the precipitates on GFB filters or (3) adsorption on polyethyleneimine-coated,GFB filters (for methods 2 and 3 see "Methods: Assay of Solubilized Receptors, 2 and 3"). Radioactivity recovered in peak I (Method 1) or on filters (Methods 2 and 3) is compared in the Table.

[3] = molecular target: T1, SRIF receptor (GH4 C1 membranes); experiment: Binding of [^125 I] biotinyl-SRIF ligands to GH4 C1 membranes (CPM bound/mg); details: radioligand 0.77×10^6 cpm/ml
Method: 4. Larger scale binding assays to obtain membrane pellets for studies on solubilization of receptor:ligand complex and for receptor purification are also carried out. These are identical to the standard assays except that: (a) Binding is carried out in polypropylene tubes in volumes from 1-250 ml, with the wash step being done in the same volume as initially used for binding, (b) Concentration of membrane protein is always 0.5 mg/ml, (c) For receptor purification, BSA concentration in the binding buffer is reduced to 0.25% and the wash step is done with binding buffer without BSA. This is to reduce BSA contamination of the purified receptor.
To compare the three biotinyl-SRIF analogs in terms of binding to streptavidin, the following experiment is done. [^125 I]Bio-SRIF analogs are bound to GH4 C1 membranes as described ("Methods: Receptor Binding Methods, 4"). All radioligands are at a concentration of 0.77×10^6 cpm/ml. For each radioligand, a control for non-specific binding is done in the presence of 1 uM cold S14. […] At the times shown, the SA beads are spun down and 100 ul samples of supernatant are counted. The cpm are compared to initial cpm in the sample and % binding to SA is calculated from this. […]

[4] = tested on: streptavidin (SA-agarose); experiment: Binding of [^125 I]-labelled biotinyl-SRIFs (solubilized R:L complex) to immobilized streptavidin (Table 3)
Method: 3. Adsorption of solubilized R:L complex to streptavidin. Immobilized streptavidin (streptavidin cross-linked to 6% beaded agarose, Pierce Chemical Co.; "SA-agarose") is washed in solubilization buffer and added to the solubilized membranes as 1/30 of the final volume. This mixture is incubated with constant stirring by end-over-end rotation for 4-5 hours at 4°-10° C. Then the mixture is applied to a column and the non-bound material is washed through. Binding of radioligand to SA-agarose is determined by comparing cpm in the 100,000×g supernatant with that in the column effluent after adsorption to SA-agarose. Finally, the column is washed with 12-15 column volumes of solubilization buffer+0.15% deoxycholate:lysolecithin+1/500 (vol/vol) 100×4pase.
To compare the three biotinyl-SRIF analogs in terms of binding to streptavidin, the following experiment is done. [^125 I]Bio-SRIF analogs are bound to GH4 C1 membranes as described ("Methods: Receptor Binding Methods, 4"). All radioligands are at a concentration of 0.77×10^6 cpm/ml. For each radioligand, a control for non-specific binding is done in the presence of 1 uM cold S14. CPM bound/mg membrane protein after the binding step are as follows: [^125 I]Bio-6C-S14=755,020 (total) and 43,361 (non-specific); [^125 I]Bio-12C=S14=633,134 (total) and 39,538 (nonspecific); [^125 I]Bio-S28=1,065,512 (total) and 35,049 (nonspecific). The membrane pellets are solubilized in solubilization buffer containing 0.15% deoxycholate:lysolecithin and 0.2 mM MgCl2 as described ("Methods: Membrane Solubilization"). […] One ml samples of solubilized membranes are incubated with 0.05 ml vols of streptavidin-agarose at 4°-10° C. on a tube rotator for the times shown. Non-specific binding samples are not done due to the low levels of non-specific binding. At the times shown, the SA beads are spun down and 100 ul samples of supernatant are counted. The cpm are compared to initial cpm in the sample and % binding to SA is calculated from this. Also, it should be noted that binding of cpm from the supernatant is considered to parallel the binding of R:L complex. Several observations confirm that this is a valid assumption.
CPM are determined for 100 ul samples of initial 100,000×g supernatant (containing soluble R:L complex) and supernatant after incubation with SA-agarose for times shown.

[5] = GFB/PEI filters, triplicate, SE 5%
[6] = PEG precipitation, triplicate, SE 5%

T1 sequence (P30680 whole entry): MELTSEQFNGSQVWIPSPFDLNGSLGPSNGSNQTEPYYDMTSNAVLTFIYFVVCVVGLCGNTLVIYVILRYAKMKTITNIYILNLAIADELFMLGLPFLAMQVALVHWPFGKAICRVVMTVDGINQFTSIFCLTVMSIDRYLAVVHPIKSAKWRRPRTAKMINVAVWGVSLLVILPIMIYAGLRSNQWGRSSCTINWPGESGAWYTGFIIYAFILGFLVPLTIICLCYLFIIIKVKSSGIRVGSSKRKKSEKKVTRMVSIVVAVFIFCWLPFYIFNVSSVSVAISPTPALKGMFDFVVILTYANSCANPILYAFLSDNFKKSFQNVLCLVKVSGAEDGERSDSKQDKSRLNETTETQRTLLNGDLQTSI

[^125 I]Tyr11-S14: non-biotinylated radioligand, [^125 I]Tyr11-S14 (AGCKNFFWKTY(125I)TSC; ends and bridges not checked; UniProt P61278 103-116, looked up, variant F11Y)
Kd [1]: 100 pM
Initial cpm bound, nonspecific ([2]; 2 mg membrane protein in 8 ml, plus 1 uM cold S14): 0.65×10^6 cpm
Initial cpm bound, total ([2]; 2 mg membrane protein in 8 ml, total): 1.43×10^6 cpm
peak I (void volume) share of total cpm ([2]; 1% CHAPS, Sephadex G-50): 34 % of total cpm
specifically bound ligand recovered, of initial specifically bound cpm on intact membranes ([2]; 1% CHAPS, Sephadex G-50 peak I): 11%
CPM in 100,000×g supernatant, nonspecific ([2]; 1% CHAPS, plus 1 uM cold S14): 0.29×10^6 CPM
CPM in 100,000×g supernatant, total ([2]; 1% CHAPS, total): 0.61×10^6 CPM
Specifically bound ligand recovered (A-B) ([2]; GFB/PEI filters): 20,340 CPM
CPM recovered, B. Nonspecific [2, 5]: 7,193 CPM
CPM recovered, A. Total [2, 5]: 27,533 CPM
Specifically bound ligand recovered (A-B) ([2]; PEG precipitation): 17,272 CPM
CPM recovered, B. Nonspecific [2, 6]: 7,803 CPM
CPM recovered, A. Total [2, 6]: 23,075 CPM
Specifically bound ligand recovered (A-B) ([2]; Sephadex G-50): 16,840 CPM
CPM recovered, B. Nonspecific ([2]; Sephadex G-50): 9,104 CPM
CPM recovered, A. Total ([2]; Sephadex G-50): 23,944 CPM

biotinyl-NH(Leu8, D-Trp22, [^125 I]Tyr25)SRIF [[^125 I]Bio-S28]
Kd [1]: 200 pM
CPM bound/mg membrane protein, nonspecific ([3]; in presence of 1 uM cold S14): 35,049 CPM bound/mg membrane protein
CPM bound/mg membrane protein, total ([3]; total): 1,065,512 CPM bound/mg membrane protein
binding of solubilized R:L complex to immobilized streptavidin vs Bio-6C-S14 and Bio-12C-S14 [4]: binds somewhat better
Initial CPM ([4]; 100 ul of initial 100,000×g supernatant): 92,534 CPM
% Binding of radioligand to SA-agarose, 1 hour ([4]; 1 hour): 66%
% Binding of radioligand to SA-agarose, 3 hours ([4]; 3 hours): 82%
Non-bound CPM, 1 hour ([4]; supernatant after 1 hour with SA-agarose): 31,645 CPM
Non-bound CPM, 3 hours ([4]; supernatant after 3 hours with SA-agarose): 17,098 CPM
